Experiment [1] can be described thus: Induction of cell cycle arrest in mouse BaF3 cells harboring CCDC6-RET G810C mutant assessed as accumulation of cells at G2/M phase at 100 nM incubated for 24 hrs by propidium iodide staining based analysis (reference value: 34.75%). Type of experiment: functional.
Experiment [2] can be described thus: Induction of cell cycle arrest in mouse BaF3 cells harboring CCDC6-RET assessed as accumulation of cells at S phase at 10 nM incubated for 24 hrs by propidium iodide staining based analysis (reference value: 13.27%). Type of experiment: functional.
Experiment [3] in a line: Induction of apoptosis in mouse BaF3 cells harboring CCDC6-RET G810C mutant assessed as viable cells at 100 nM incubated for 48 hrs by Annexin V-PE staining based flow cytometry analysis (Rvb =86.47%). Type of experiment: functional. Conditions: read-out: Activity.
Experiment [4] is described as follows: Induction of cell cycle arrest in mouse BaF3 cells harboring CCDC6-RET G810R mutant assessed as accumulation of cells at G2/M phase at 100 nM incubated for 24 hrs by propidium iodide staining based analysis (reference value: 33.61%). It is filed as functional.
Experiment [5] can be described thus: Induction of cell cycle arrest in mouse BaF3 cells harboring CCDC6-RET G810C mutant assessed as accumulation of cells at S phase at 30 nM incubated for 24 hrs by propidium iodide staining based analysis (reference value: 12.47%). Type of experiment: functional.
The nature of experiment [6]: Induction of apoptosis in mouse BaF3 cells harboring CCDC6-RET G810R mutant assessed as necrotic cells at 10 nM incubated for 48 hrs by Annexin V-PE staining based flow cytometry analysis (Rvb =0.30%). Type of experiment: functional.
Experiment [7] in a line: Induction of apoptosis in mouse BaF3 cells harboring CCDC6-RET G810R mutant assessed as early apoptotic cells at 10 nM incubated for 48 hrs by Annexin V-PE staining based flow cytometry analysis (Rvb =10 %). It is filed as functional.
The nature of experiment [8]: Induction of apoptosis in mouse BaF3 cells harboring CCDC6-RET assessed as viable cells at 300 nM incubated for 48 hrs by Annexin V-PE staining based flow cytometry analysis (Rvb =91.16%). Conditions: read-out: Activity. It is filed as functional.
Experiment [9] concerns the target T1, Ephrin type-B receptor 4 (Homo sapiens) (UniProt P54760).
T1 sequence (whole entry): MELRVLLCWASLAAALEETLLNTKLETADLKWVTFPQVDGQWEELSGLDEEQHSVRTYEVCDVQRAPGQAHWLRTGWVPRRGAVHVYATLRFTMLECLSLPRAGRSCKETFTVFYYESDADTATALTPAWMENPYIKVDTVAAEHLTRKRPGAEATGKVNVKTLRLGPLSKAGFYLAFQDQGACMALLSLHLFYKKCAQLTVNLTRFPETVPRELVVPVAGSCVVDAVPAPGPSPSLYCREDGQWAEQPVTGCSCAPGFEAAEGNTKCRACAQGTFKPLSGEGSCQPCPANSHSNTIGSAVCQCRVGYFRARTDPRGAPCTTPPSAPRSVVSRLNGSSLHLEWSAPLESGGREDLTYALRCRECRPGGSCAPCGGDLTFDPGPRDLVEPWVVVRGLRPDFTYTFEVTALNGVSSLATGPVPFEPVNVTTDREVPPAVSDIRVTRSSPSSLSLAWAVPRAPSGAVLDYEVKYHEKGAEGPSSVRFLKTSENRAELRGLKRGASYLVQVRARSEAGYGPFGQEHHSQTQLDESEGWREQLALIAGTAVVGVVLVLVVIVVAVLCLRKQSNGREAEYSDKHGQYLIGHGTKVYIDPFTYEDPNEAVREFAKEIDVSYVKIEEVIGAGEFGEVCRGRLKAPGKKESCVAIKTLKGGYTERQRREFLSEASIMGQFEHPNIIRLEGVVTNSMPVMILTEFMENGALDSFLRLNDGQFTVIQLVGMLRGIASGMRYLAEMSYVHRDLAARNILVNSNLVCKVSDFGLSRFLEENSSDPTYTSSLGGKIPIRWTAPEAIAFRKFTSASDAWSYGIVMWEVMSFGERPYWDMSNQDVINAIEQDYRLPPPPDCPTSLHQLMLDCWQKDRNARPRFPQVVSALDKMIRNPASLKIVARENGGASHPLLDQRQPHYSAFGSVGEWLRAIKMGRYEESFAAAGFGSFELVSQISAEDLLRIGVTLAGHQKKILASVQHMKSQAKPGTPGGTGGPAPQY
Kind of experiment: Inhibition of EPHB4 (unknown origin) at 1 uM relative to control.

A short description of experiment [10]: Induction of apoptosis in mouse BaF3 cells harboring CCDC6-RET G810C mutant assessed as early apoptotic cells at 10 nM incubated for 48 hrs by Annexin V-PE staining based flow cytometry analysis (Rvb =8.74%). It is filed as functional.
Experiment [11] concerns BaF3. Kind of experiment: Inhibition of SHC phosphorylation in mouse BaF3 cells harboring CCDC6-RET G810C mutant incubated for 12 hrs by Western blotting analysis. Type of experiment: cell-based. Conditions: dose <= 300.0 nM.
Experiment [12] in a line: Induction of cell cycle arrest in mouse BaF3 cells harboring CCDC6-RET G810R mutant assessed as accumulation of cells at G2/M phase at 30 nM incubated for 24 hrs by propidium iodide staining based analysis (reference value: 33.61%). Type of experiment: functional.
Experiment [13] can be described thus: Induction of apoptosis in mouse BaF3 cells harboring CCDC6-RET G810R mutant assessed as necrotic cells at 30 nM incubated for 48 hrs by Annexin V-PE staining based flow cytometry analysis (Rvb =0.30%). Type of experiment: functional.
Experiment [14] is described as follows: Induction of apoptosis in mouse BaF3 cells harboring CCDC6-RET assessed as viable cells at 10 nM incubated for 48 hrs by Annexin V-PE staining based flow cytometry analysis (Rvb =91.16%). Type of experiment: functional. Conditions: read-out: Activity.
Experiment [15] has as its system BaF3. Kind of experiment: Antitumor activity against mouse BaF3 cells implanted in SCID mouse assessed as tumor growth inhibition at 25 mg/kg, ip administered once daily for 10 days. Conditions: BaF3, 240 h, time 10 day, read-out: TGI. Type of experiment: functional.
Experiment [16] is described as follows: Induction of apoptosis in mouse BaF3 cells harboring CCDC6-RET G810R mutant assessed as late apoptotic cells at 10 nM incubated for 48 hrs by Annexin V-PE staining based flow cytometry analysis (Rvb =3.21%). It is filed as functional.
Experiment [17] addresses Platelet-derived growth factor receptor alpha (Homo sapiens, UniProt P16234). Put plainly: Inhibition of PDGFRalpha (unknown origin).
The target in the next experiment is Ephrin type-A receptor 2 (Homo sapiens, UniProt P29317). Put plainly: Inhibition of EPHA2 (unknown origin) at 1 uM relative to control.
The nature of experiment [18]: Induction of apoptosis in mouse BaF3 cells harboring CCDC6-RET G810R mutant assessed as viable cells at 10 nM incubated for 48 hrs by Annexin V-PE staining based flow cytometry analysis (Rvb =86.40%). It is filed as functional. The following applies: read-out: Activity.
The nature of experiment [19]: Induction of cell cycle arrest in mouse BaF3 cells harboring CCDC6-RET assessed as accumulation of cells at G2/M phase at 300 nM incubated for 24 hrs by propidium iodide staining based analysis (reference value: 34.11%). Type of experiment: functional.
Experiment [20] concerns BaF3. Kind of experiment: Antiproliferative activity against mouse BaF3 cells harbouring CCDC6-RET assessed as inhibition of cell proliferation incubated for 72 hrs by CCK-8 assay. It is filed as functional, cell-based. Conditions: BaF3, 72 h.
The nature of experiment [21]: Induction of cell cycle arrest in mouse BaF3 cells harboring CCDC6-RET G810R mutant assessed as accumulation of cells at S phase at 10 nM incubated for 24 hrs by propidium iodide staining based analysis (reference value: 13.66%). It is filed as functional.

Chain of Platelet-derived growth factor receptor alpha (P16234 whole entry): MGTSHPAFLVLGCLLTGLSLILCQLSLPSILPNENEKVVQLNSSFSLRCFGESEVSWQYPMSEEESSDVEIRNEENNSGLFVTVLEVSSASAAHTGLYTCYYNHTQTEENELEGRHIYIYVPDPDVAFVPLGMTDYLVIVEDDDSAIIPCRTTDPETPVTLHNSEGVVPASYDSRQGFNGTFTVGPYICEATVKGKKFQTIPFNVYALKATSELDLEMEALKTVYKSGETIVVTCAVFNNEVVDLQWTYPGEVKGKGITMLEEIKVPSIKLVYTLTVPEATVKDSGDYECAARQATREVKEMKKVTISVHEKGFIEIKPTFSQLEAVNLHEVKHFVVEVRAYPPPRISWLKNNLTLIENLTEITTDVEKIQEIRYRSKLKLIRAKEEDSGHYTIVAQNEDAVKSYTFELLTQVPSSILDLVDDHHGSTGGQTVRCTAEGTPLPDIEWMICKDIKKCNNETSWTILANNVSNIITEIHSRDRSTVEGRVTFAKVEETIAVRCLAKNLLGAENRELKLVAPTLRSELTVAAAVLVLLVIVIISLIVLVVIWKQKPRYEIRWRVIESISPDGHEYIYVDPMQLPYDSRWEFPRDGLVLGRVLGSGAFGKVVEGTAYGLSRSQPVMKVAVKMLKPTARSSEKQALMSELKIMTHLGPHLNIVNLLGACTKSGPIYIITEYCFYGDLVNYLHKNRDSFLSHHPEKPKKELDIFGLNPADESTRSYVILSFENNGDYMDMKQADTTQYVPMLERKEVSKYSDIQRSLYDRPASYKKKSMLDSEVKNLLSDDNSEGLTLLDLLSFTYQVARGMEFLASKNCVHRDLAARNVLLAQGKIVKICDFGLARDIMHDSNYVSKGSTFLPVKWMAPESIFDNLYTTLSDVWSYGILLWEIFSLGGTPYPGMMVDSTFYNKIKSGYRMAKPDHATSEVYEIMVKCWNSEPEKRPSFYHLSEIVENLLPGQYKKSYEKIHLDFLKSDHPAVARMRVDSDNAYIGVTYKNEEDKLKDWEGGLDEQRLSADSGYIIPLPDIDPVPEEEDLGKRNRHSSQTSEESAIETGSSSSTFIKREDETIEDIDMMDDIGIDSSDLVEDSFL
Chain of Ephrin type-A receptor 2 (P29317 whole entry): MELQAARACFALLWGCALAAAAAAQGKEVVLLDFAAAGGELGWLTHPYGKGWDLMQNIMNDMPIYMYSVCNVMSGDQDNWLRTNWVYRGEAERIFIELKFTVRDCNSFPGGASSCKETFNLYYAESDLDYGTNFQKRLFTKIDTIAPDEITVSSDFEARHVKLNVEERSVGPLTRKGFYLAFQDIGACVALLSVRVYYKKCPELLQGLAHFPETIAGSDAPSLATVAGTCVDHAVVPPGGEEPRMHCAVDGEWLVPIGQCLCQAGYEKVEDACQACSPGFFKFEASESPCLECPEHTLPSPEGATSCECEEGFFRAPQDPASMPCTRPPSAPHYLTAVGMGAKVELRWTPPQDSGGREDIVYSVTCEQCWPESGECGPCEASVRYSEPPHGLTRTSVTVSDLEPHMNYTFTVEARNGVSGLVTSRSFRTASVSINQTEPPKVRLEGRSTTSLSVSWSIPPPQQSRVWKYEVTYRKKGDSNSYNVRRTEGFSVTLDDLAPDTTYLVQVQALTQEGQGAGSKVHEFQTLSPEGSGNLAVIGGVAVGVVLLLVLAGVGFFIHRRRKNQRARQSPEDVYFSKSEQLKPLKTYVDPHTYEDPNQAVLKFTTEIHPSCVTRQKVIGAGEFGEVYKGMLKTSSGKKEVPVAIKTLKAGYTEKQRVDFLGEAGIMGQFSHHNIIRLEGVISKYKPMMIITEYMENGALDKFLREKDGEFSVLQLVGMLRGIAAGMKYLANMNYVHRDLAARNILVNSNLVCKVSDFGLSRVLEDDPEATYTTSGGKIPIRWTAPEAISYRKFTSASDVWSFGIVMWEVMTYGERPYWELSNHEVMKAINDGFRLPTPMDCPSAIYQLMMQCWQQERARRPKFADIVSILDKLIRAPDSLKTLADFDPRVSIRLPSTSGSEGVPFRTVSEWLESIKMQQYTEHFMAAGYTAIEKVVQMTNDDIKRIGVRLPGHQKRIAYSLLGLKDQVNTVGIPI

In the case of `COc1cncc(-c2cn[nH]c2/C=C/c2ccc(NC(=O)Nc3cc(C(C)(C)C(F)(F)F)on3)c(Cl)c2)c1`, the Activity came out at 25.81% in experiment [1]; 13.37% in experiment [2]; 28.68% in experiment [4]; 11.11% in experiment [5]; 0.17% in experiment [6]; 10.05% in [7]. Moreover, the Activity in experiment [10] is 9.11%; in experiment [12], 32.17%; in experiment [13] it was 0.14%; in experiment [16] it was 3.29%; in [19], 12.51%; in [21], 13.31%. In experiment [3], the viability at 0.1 µM is 60%. In addition, the viability at 0.3 µM in experiment [8] came to 13.9%. Also, the inhibition in experiment [9] is 92.9%; in the experiment on BaF3 [11], “Dose-dependent-effect”; against Ephrin type-A receptor 2 it was 100%. Also, the viability at 0.01 µM in [14] and in [18] was 86.4% in each case. For the same compound, the inhibition in vivo at 25 mg/kg in the experiment with BaF3 [15] stood at 39.7%. For the same compound, the IC50 in experiment [17] was found to be 17.3 nM; in the experiment on BaF3 [20], 13 nM.

Values taken from ChEMBL document CHEMBL6103575, “Design, synthesis and evaluation of (E)-1-(4-(2-(1H-pyrazol-5-yl)vinyl)phenyl) derivatives as next generation selective RET inhibitors overcoming RET solvent front mutations (G810C/R)” (Eur J Med Chem, 2025).
